Laboratory results published in patent publication EP1680415B1, “PYRROLIDINYL UREA DERIVATIVES AS ANGIOGENESIS INHIBITORS” (ABBOTT LABORATORIES, priority 2003, dated 2005).

Tested on: HMVEC
Experiment: human microvascular endothelial (HMVEC) migration assay
Assay type: cell-based
Settings: Homo sapiens; Inhibition of HMVEC migration; 0.01 nM; activators 15 ng/mL bFGF/VEGF; 4 hours at 37 °C; compared to a positive control
Procedure: The human microvascular endothelial (HMVEC) migration assay was run according to the procedure of S. S. Tolsma, O. V. Volpert, D. J. Good, W. F. Frazier, P. J. Polverini and N. Bouck, J. Cell Biol. 122, 497-511 (1993).
The HMVEC migration assay was carried out using Human Microvascular Endothelial Cells-Dermal (single donor) and Human Microvascular Endothelial Cells, (neonatal). The BCE or HMVEC cells were starved overnight in DME containing 0.01% bovine serum albumin (BSA). Cells were then harvested with trypsin and resuspended in DME with 0.01 % BSA at a concentration of 1.5 X 10^6 cells per mL. Cells were added to the bottom of a 48 well modified Boyden chamber (Nucleopore Corporation, Cabin John, MD). The chamber was assembled and inverted, and cells were allowed to attach for 2 hours at 37 °C to polycarbonate chemotaxis membranes (5 µm pore size) that had been soaked in 0.01 % gelatin overnight and dried. The chamber was then reinverted, and test substances (total volume of 50 µL), including activators, 15 ng/mL bFGF/VEGF, were added to the wells of the upper chamber. The apparatus was incubated for 4 hours at 37 °C. Membranes were recovered, fixed and stained (Diff Quick, Fisher Scientific) and the number of cells that had migrated to the upper chamber per 3 high power fields counted. Background migration to DME + […] was subtracted and the data reported as the number of cells migrated per 10 high power fields (400X) or, when results from multiple experiments were combined, as the percent inhibition of migration compared to a positive control.

Compound | inhibition at 10 pM [%]
Cc1ccc(C(=O)N2CC[C@@H](NC(=O)N3CC(C)OC(C)C3)C2)cn1 (stereo partly drawn) [Example 88, 2,6-dimethyl-N-{(3R)-1-[(6-methylpyridin-3-yl)carbonyl]pyrrolidin-3-yl}morpholine-4-carboxamide] | 81
Cc1ccc(C(=O)N2CC[C@@H](NC(=O)N3CCN(c4ccccc4F)CC3)C2)cn1 [Example 91, 4-(2-fluorophenyl)-N-{(3R)-1-[(6-methylpyridin-3-yl)carbonyl]pyrrolidin-3-yl}piperazine-1-carboxamide] | 57
COCC1CCCN(C(=O)N[C@@H]2CCN(C(=O)c3ccc(C)nc3)C2)C1 (stereo partly drawn) [Example 97, 3-(methoxymethyl)-N-{(3R)-1-[(6-methylpyridin-3-yl)carbonyl]pyrrolidin-3-yl}piperidine-1-carboxamide] | 54

Same assay, conditions: Homo sapiens; Inhibition of HMVEC migration; 0.1 nM; activators 15 ng/mL bFGF/VEGF; 4 hours at 37 °C; compared to a positive control

Compound | inhibition at 0.0001 µM [%]
Cc1ccc(C(=O)N2CC[C@@H](NC(=O)NCC(O)CO)C2)cn1 (stereo partly drawn) [Example 27, N-(2,3-dihydroxypropyl)-N'-{(3R)-1-[(6-methyl-3-pyridinyl)carbonyl]-3-pyrrolidinyl}urea] | 83
CCCC(C)NC(=O)N[C@@H]1CCN(C(=O)c2ccc(C)nc2)C1 (stereo partly drawn) [Example 8, N-(1-methylbutyl)-N'-{(3R)-1-[(6-methyl-3-pyridinyl)carbonyl]-3-pyrrolidinyl}urea] | 56
Cc1ccc(C(=O)N2CC[C@@H](NC(=O)NCC3CC3)C2)cn1 [Example 17, N-(cyclopropylmethyl)-N'-{(3R)-1-[(6-methyl-3-pyridinyl)carbonyl]-3-pyrrolidinyl}urea] | 76
Cc1ccc(C(=O)N2CC[C@@H](NC(=O)NCc3ccccc3)C2)cn1 [Example 1, N-benzyl-N'-{(3R)-1-[(6-methylpyridin-3-yl)carbonyl]pyrrolidin-3-yl}urea] | 80
CCCN(CCOC)C(=O)N[C@@H]1CCN(C(=O)c2ccc(C)nc2)C1 [Example 72, N-(2-methoxyethyl)-N'-{(3R)-1-[(6-methylpyridin-3-yl)carbonyl]pyrrolidin-3-yl}-N-propylurea] | 89
Cc1ccc(C(=O)N2CC[C@@H](NC(=O)N3CCN(c4ccc([N+](=O)[O-])cc4)CC3)C2)cn1 [Example 96, N-{(3R)-1-[(6-methylpyridin-3-yl)carbonyl]pyrrolidin-3-yl}-4-(4-nitrophenyl)piperazine-1-carboxamide] | 75
CCC(C)N1CCN(C(=O)N[C@@H]2CCN(C(=O)c3ccc(C)nc3)C2)CC1 (stereo partly drawn) [Example 76, 4-sec-butyl-N-{(3R)-1-[(6-methylpyridin-3-yl)carbonyl]pyrrolidin-3-yl}piperazine-1-carboxamide] | 58
COCCN(CCOC)C(=O)N[C@@H]1CCN(C(=O)c2ccc(C)nc2)C1 [Example 73, N,N-bis(2-methoxyethyl)-N'-{(3R)-1-[(6-methylpyridin-3-yl)carbonyl]pyrrolidin-3-yl}urea] | 71
Cc1ccc(C(=O)N2CC[C@@H](NC(=O)N(C)CC(C)C)C2)cn1 [Example 60, N-isobutyl-N-methyl-N'-{(3R)-1-[(6-methylpyridin-3-yl)carbonyl]pyrrolidin-3-yl}urea] | 67
Cc1ccc(C(=O)N2CC[C@@H](NC(=O)N(C)CCC(C)C)C2)cn1 [Example 61, N-methyl-N-(3-methylbutyl)-N'-{(3R)-1-[(6-methylpyridin-3-yl)carbonyl]pyrrolidin-3-yl}urea] | 66
Cc1ccc(C(=O)N2CCC(NC(=O)N(C)CC(O)c3ccccc3)C2)cn1 (centres unmarked) [Example 83, N-(2-hydroxy-2-phenylethyl)-N-methyl-N'-{1-[(6-methylpyridin-3-yl)carbonyl]pyrrolidin-3-yl}urea] | 80
Cc1ccc(C(=O)N2CC[C@@H](NC(=O)NCC(C)C)C2)cn1 [Example 7, N-isobutyl-N'-{(3R)-1-[(6-methyl-3-pyridinyl)carbonyl]-3-pyrrolidinyl}urea] | 90
Cc1ccc(C(=O)N2CC[C@@H](NC(=O)NCC3CCCCC3)C2)cn1 [Example 21, N-(cyclohexylmethyl)-N'-{(3R)-1-[(6-methyl-3-pyridinyl)carbonyl]-3-pyrrolidinyl}urea] | 90
Cc1ccc(C(=O)N2CC[C@@H](NC(=O)N(CCO)Cc3ccccc3)C2)cn1 [Example 82, N-benzyl-N-(2-hydroxyethyl)-N'-{(3R)-1-[(6-methylpyridin-3-yl)carbonyl]pyrrolidin-3-yl}urea] | 57
Cc1ccc(C(=O)N2CC[C@@H](NC(=O)N3CCN(CC(=O)N4CCCCC4)CC3)C2)cn1 [Example 80, N-{(3R)-1-[(6-methylpyridin-3-yl)carbonyl]pyrrolidin-3-yl}-4-(2-oxo-2-piperidin-1-ylethyl)piperazine-1-carboxamide] | 73
CCNC(=O)N[C@@H]1CCN(C(=O)c2ccc(C)nc2)C1 [Example 6, N-ethyl-N'-{(3R)-1-[(6-methyl-3-pyridinyl)carbonyl]-3-pyrrolidinyl}urea] | 70
Cc1ccc(C(=O)N2CC[C@@H](NC(=O)NC3CCCCC3)C2)cn1 [Example 19, N-cyclohexyl-N'-{(3R)-1-[(6-methyl-3-pyridinyl)carbonyl]-3-pyrrolidinyl}urea] | 63
Cc1ccc(C(=O)N2CC[C@@H](NC(=O)N[C@@H](C)c3ccccc3)C2)cn1 [Example 33, N-((3R)-1-[(6-methylpyridin-3-yl)carbonyl]pyrrolidin-3-yl)-N'-[(1S)-1-phenylethyl]urea] | 85
Cc1ccc(C(=O)N2CC[C@@H](NC(=O)N3CCC(n4c(=O)[nH]c5ccccc54)CC3)C2)cn1 [Example 56, N-{(3R)-1-[(6-methylpyridin-3-yl)carbonyl]pyrrolidin-3-yl}-4-(2-oxo-2,3-dihydro-1H-benzimidazol-1-yl)piperidine-1-carboxamide] | 86
COc1ccccc1N1CCN(C(=O)N[C@@H]2CCN(C(=O)c3ccc(C)nc3)C2)CC1 [Example 93, 4-(2-methoxyphenyl)-N-{(3R)-1-[(6-methylpyridin-3-yl)carbonyl]pyrrolidin-3-yl}piperazine-1-carboxamide] | 72

Same assay, conditions: Homo sapiens; Inhibition of HMVEC migration; 1 nM; activators 15 ng/mL bFGF/VEGF; 4 hours at 37 °C; compared to a positive control

Compound | inhibition at 0.001 µM [%]
Cc1ccc(C(=O)N2CC[C@@H](NC(=O)N3CCN(c4ccccc4)CC3)C2)c(Cl)n1 [Example 48, N-{(3R)-1-[(2-chloro-6-methylpyridin-3-yl)carbonyl]pyrrolidin-3-yl}-4-phenylpiperazine-1-carboxamide] | 78
Cc1ccc(C(=O)N2CC[C@@H](NC(=O)N(C)CCc3ccccc3)C2)cn1 [Example 75, N-methyl-N'-{(3R)-1-[(6-methylpyridin-3-yl)carbonyl]pyrrolidin-3-yl}-N-(2-phenylethyl)urea] | 76
CCN(CC)C(=O)C1CCCN(C(=O)N[C@@H]2CCN(C(=O)c3ccc(C)nc3)C2)C1 (stereo partly drawn) [Example 55, N^3,N^3-diethyl-N^1-{(3R)-1-[(6-methylpyridin-3-yl)carbonyl]pyrrolidin-3-yl}piperidine-1,3-dicarboxamide] | 93
Cc1ccc(C(=O)N2CC[C@@H](NC(=O)NCCCOC(C)C)C2)c(Cl)n1 [Example 39, N-{(3R)-1-[(2-chloro-6-methylpyridin-3-yl)carbonyl]pyrrolidin-3-yl}-N'-(3-isopropoxypropyl)urea] | 72
Cc1ccc(C(=O)N2CC[C@@H](NC(=O)N(CCc3ccccc3)Cc3ccccc3)C2)cn1 [Example 54, N-benzyl-N'-{(3R)-1-[(6-methylpyridin-3-yl)carbonyl]pyrrolidin-3-yl}-N-(2-phenylethyl)urea] | 78
Cc1ccc(C(=O)N2CC[C@@H](NC(=O)N3CCC(n4c(=O)[nH]c5ccccc54)CC3)C2)c(Cl)n1 [Example 47, N-{(3R)-1-[(2-chloro-6-methylpyridin-3-yl)carbonyl]pyrrolidin-3-yl}-4-(2-oxo-2,3-dihydro-1H-benzimidazol-1-yl)piperidine-1-carboxanude] | 80

Same assay, conditions: Inhibition of HMVEC migration; 0.01 nM; activators 15 ng/mL bFGF/VEGF; 4 hours at 37 °C; compared to a positive control

Compound | % Inhibition @ 0.01 nM [%]
4-methyl-N-{(3R)-1-[(6-methylpyridin-3-yl)carbonyl]pyrrolidin-3-yl}-1,4-diazepane-1-carboxamide [Example 94] | 57

Same assay, conditions: Inhibition of HMVEC migration; 0.1 nM; activators 15 ng/mL bFGF/VEGF; 4 hours at 37 °C; compared to a positive control

Compound | % Inhibition @ 0.1 nM [%]
N-{(3R)-1-[(6-methyl-3-pyridinyl)carbonyl]-3-pyrrolidinyl}-N'-[2-(2-thienyl)ethyl]urea [Example 28] | 86

Same assay, conditions: Inhibition of HMVEC migration; 1 nM; activators 15 ng/mL bFGF/VEGF; 4 hours at 37 °C; compared to a positive control

Compound | % Inhibition @ 1 nM [%]
N-{(3R)-1-[(2-chloro-6-methylpyridin-3-yl)carbonyl]pyrrolidin-3-yl}-1,3,3-trimethyl-6-azabicyclo[3.2.1]octane-6-carboxamide [Example 36] | 64
